Source: publication PMC12670405, “Second-Generation AURKA-Targeting PROTACs: Structural Optimization toward in Vivo Degradation in Neuroblastoma” (Journal of Medicinal Chemistry, 2025)

Assays:
Assay in all cases: LC-MS/MS proteome profiling
CKAP2 = type: cell-based, Homo sapiens; parameters: key to Significant (24h SK5527vs24h DMSO) FDR0 05: +: Statistical significance for differential regulation was set to a false discovery rate (FDR) of < 0.05 and |log2FC| = 2
Experimental: (§1) IMR-32 cells were seeded in T-25 flasks at a density of 1.7 million cells/flask and treated the next day with DMSO (negative control), SK5527 (500 nM) or MK-5108 (500 nM) for 3 or 24 h (data for MK-5108 not discussed in this manuscript). Cell pellets were harvested at the respective time points, lysed, and the concentration of the obtained protein lysates measured as previously described. Details on further sample preparation, LC–MS/MS, and data analysis can be found in the Supporting Information. The LC–MS/MS proteomics data have been deposited to the ProteomeXchange Consortium via the PRIDE partner repository with the data set identifier PXD061539.
(§2) Supplementary Methods 1 – LC-MS/MS proteomics
(§3) From each sample, 100 µg of protein was isolated, the volumes were equalized with water and SDS and TEAB were added to a final concentration of 5% and 50 mM, respectively. Proteins were reduced and alkylated by addition of 10 mM Tris(2-carboxyethyl)phosphine hydrochloride and 40 mM chloroacetamide and incubation for 30 minutes at 25°C in the dark. Phosphoric acid was added to a final concentration of 1.2%, and samples were subsequently diluted 7-fold with binding buffer containing 90% methanol in 100 mM TEAB, pH 7.55. The samples were loaded on the 96-well S-Trap™ plate (Protifi), placed on top of a deepwell plate, and centrifuged for 2 min at 1,500 x g at RT. After protein binding, the S-trap™ plate was washed three times by adding 200 µl binding buffer and centrifugation for 2 min at 1,500 x g at RT. A new deepwell receiver plate was placed below the 96-well S-Trap™ plate and 50 mM TEAB containing trypsin (1/100, w/w) was added for digestion overnight at 37°C.
(§4) Using centrifugation for 2 min at 1,500 x g, peptides were eluted in three steps, first with 80 µl 50 mM TEAB, then with 80 µl 0.2% formic acid (FA) in water and finally with 80 µl 0.2% FA in water/acetonitrile (ACN) (50/50, v/v). Eluted peptides were dried completely by vacuum centrifugation.
(§5) Peptides were re-dissolved in 20 µl loading solvent A (0.1% trifluoroacetic acid in water/acetonitrile (ACN) (99.5:0.5, v/v)) of which 2 µl of sample was injected for LC-MS/MS analysis on an Ultimate 3000 ProFlow nanoLC system in-line connected to a Orbitrap Exploris 240 mass spectrometer (Thermo) equipped with pneu-Nimbus dual ion source (Phoenix S&T). Trapping was performed at 20 μl/min for 2 min in loading solvent A on a PepMap™ Neo Trap column (Thermo scientific, 300 μm internal diameter (I.D.), 5 μm beads). The peptides were separated on a 250 mm Odyssey Ultimate, 1.7µm C18, 75 µm inner diameter (Ionopticks) kept at a constant temperature of 45°C. Peptides were eluted by a gradient reaching 26,4 % MS solvent B (0.1% FA in acetonitrile) after 80 min, 44% MS solvent B at 95 min, 56% MS solvent B at 100min followed by a 5-minutes wash at 56% MS solvent B and re-equilibration with MS solvent A (0.1% FA in water). The flow rate was set to 250 nl/min. The mass spectrometer was operated in data-independent mode, automatically switching between MS and MS/MS acquisition. Full-scan MS spectra ranging from 375-1500 m/z with a normalized target value of 300%, a maximum fill time of 25 ms and a resolution at of 60,000 were followed by 30 quadrupole isolations with a precursor isolation width of 10 m/z for HCD fragmentation at an NCE of 30% after filling the trap at a normalized target value of 2000% for maximum injection time of 45 ms. MS2 spectra were acquired at a resolution of 15,000 with a scan range of 200-1800 m/z in the Orbitrap analyser without multiplexing. The isolation intervals were set from 400 – 900 m/z with a width of 10 m/z using window placement optimization. The polydimethylcyclosiloxane background ion at 445.120028 Da was used for internal calibration (lock mass) and QCloud has been used to control instrument longitudinal performance during the project.
(§6) Analysis of the mass spectrometry data was performed in DiaNN (version 1.9). Precursor false discovery rate was […]
(§7) set at 1%. […]

PLK1 = type: cell-based, Homo sapiens; parameters: key to Significant (24h SK5527vs24h DMSO) FDR0 05: +: Statistical significance for differential regulation was set to a false discovery rate (FDR) of < 0.05 and |log2FC| = 2
Experimental: as §1, §2, §3, §4, §5, §6, §7

ZNF660 = type: cell-based, Homo sapiens; parameters: key to Significant (24h SK5527vs24h DMSO) FDR0 05: +: Statistical significance for differential regulation was set to a false discovery rate (FDR) of < 0.05 and |log2FC| = 2
Experimental: as §1, §2, §3, §4, §5, §6, §7

AURKA = target: T1, AURKA (Homo sapiens, UniProt O14965); type: cell-based; parameters: endogenous in cells; host or cells: IMR-32; key to Significant (3h SK5527vs3h DMSO) FDR0 05 / Significant (24h SK5527vs24h DMSO) FDR0 05: +: Statistical significance for differential regulation was set to a false discovery rate (FDR) of < 0.05 and |log2FC| = 2
T1 sequence (O14965 1-403): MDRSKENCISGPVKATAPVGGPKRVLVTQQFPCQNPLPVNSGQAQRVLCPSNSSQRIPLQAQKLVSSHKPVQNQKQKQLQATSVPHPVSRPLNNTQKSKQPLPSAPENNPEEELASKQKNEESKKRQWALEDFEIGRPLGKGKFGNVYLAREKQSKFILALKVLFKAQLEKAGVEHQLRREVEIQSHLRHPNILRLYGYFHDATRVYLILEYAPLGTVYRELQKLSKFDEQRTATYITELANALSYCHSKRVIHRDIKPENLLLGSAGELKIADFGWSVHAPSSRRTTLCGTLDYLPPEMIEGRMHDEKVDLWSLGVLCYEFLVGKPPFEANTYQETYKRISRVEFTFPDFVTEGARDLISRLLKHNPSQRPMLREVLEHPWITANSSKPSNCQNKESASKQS
Experimental: as §1, §2, §3, §4, §5, §6, §7

Question: `Cc1cc(Nc2ccc(F)c(CC3(C(=O)N4CCC(F)(CN5CCN(c6ccc(N7CCC(=O)NC7=O)cn6)CC5)CC4)CCN(Cc4cccc(Cl)c4F)CC3)n2)n[nH]1` [SK5527] was tested. Which “logFC (3h SK5527vs3h DMSO)” value (CKAP2; IMR-32, 3h) did it give?
Answer: 0.32

Question: And the “Significant (24h SK5527vs24h DMSO) FDR0 05” value (CKAP2; IMR-32, 24h)?
Answer: +

Question: And the “logFC (24h SK5527vs24h DMSO)” value (CKAP2; IMR-32, 24h)?
Answer: 2.1

Question: What about the “logFC CKAP2” value (CKAP2; SK5527 vs DMSO (24h)) of the same compound?
Answer: 2.1

Question: And the “logFC (3h SK5527vs3h DMSO)” value (PLK1; IMR-32, 3h)?
Answer: 0.31

Question: And the “Significant (24h SK5527vs24h DMSO) FDR0 05” value (PLK1; IMR-32, 24h)?
Answer: +

Question: And the “logFC (24h SK5527vs24h DMSO)” value (PLK1; IMR-32, 24h)?
Answer: 2.19

Question: And the “logFC PLK1” value (PLK1; SK5527 vs DMSO (24h))?
Answer: 2.19

Question: And the “logFC (3h SK5527vs3h DMSO)” value (ZNF660; IMR-32, 3h)?
Answer: -0.15

Question: What about the “Significant (24h SK5527vs24h DMSO) FDR0 05” value (ZNF660; IMR-32, 24h) of the same compound?
Answer: +

Question: And the “logFC (24h SK5527vs24h DMSO)” value (ZNF660; IMR-32, 24h)?
Answer: -2.02

Question: What about the “logFC ZNF660” value (ZNF660; SK5527 vs DMSO (24h)) of the same compound?
Answer: -2.02

Question: And the “Significant (3h SK5527vs3h DMSO) FDR0 05” value (AURKA; IMR-32, 3h)?
Answer: +

Question: And the “logFC (3h SK5527vs3h DMSO)” value (AURKA; IMR-32, 3h)?
Answer: -3.27

Question: And the “Significant (24h SK5527vs24h DMSO) FDR0 05” value (AURKA; IMR-32, 24h)?
Answer: +

Question: What about the “logFC (24h SK5527vs24h DMSO)” value (AURKA; IMR-32, 24h) of the same compound?
Answer: -3.1

Question: What about the “logFC AURKA” value (AURKA; SK5527 vs DMSO (3h)) of the same compound?
Answer: -3.27

Question: What about the “logFC AURKA” value (AURKA; SK5527 vs DMSO (24h)) of the same compound?
Answer: -3.1
